According to ChEMBL document CHEMBL1127764, “An efficient method for the synthesis of guanidino prodrugs” (Bioorg Med Chem Lett, 1994):

Legend:
Rattus norvegicus = species: Rattus norvegicus; assay: Half-life in vitro in rat plasma; No detectable degradation over 2 hr; no detectable degradation over 2 hours; type: ADME
Caco-2 = assay: Permeability coefficient in Caco-2 cell line monolayers was tested; type: functional, Homo sapiens
[1] = Half-life in vitro in rat plasma; type: ADME
[2] = Half-life in vitro in pig liver; type: ADME, tissue-based, Sus scrofa

## N=C(N)NCc1ccccc1
Rattus norvegicus
  T1/2: Stable
Caco-2
  Pc: 2.24 ×10⁻⁶ cm/s

## CC(C)(C)C(=O)OCOC(=O)/N=C(/NCc1ccccc1)NC(=O)OCOC(=O)C(C)(C)C
[1]
  half-life: 1.12 min
Caco-2
  Pc: 3.69 ×10⁻⁶ cm/s

## NC(=O)CCCCCCN=C(N)N
[2]
  half-life: < 5 min

## O=C(/N=C(/NCc1ccccc1)NC(=O)OCc1ccccc1)OCc1ccccc1
[1]
  half-life: 12.5 min
Caco-2
  Pc: 0.51 ×10⁻⁶ cm/s

## O=C(Cc1ccccc1)OCOC(=O)/N=C(/NCc1ccccc1)NC(=O)OCOC(=O)Cc1ccccc1
[1]
  half-life: 0.13 min
Caco-2
  Pc: 8.55 ×10⁻⁶ cm/s

## O=C(/N=C(/NCc1ccccc1)NC(=O)Oc1ccccc1)Oc1ccccc1
[1]
  half-life: 0.46 min
Caco-2
  Pc: 6.45 ×10⁻⁶ cm/s
